Laboratory results taken from ChEMBL document CHEMBL1151840, “Synthetic oligoribonucleotides containing arabinonucleotides act as agonists of TLR7 and 8” (Bioorg Med Chem Lett, 2009).
Calls of active or inactive are those of the source. The calls are words filed in the database; no cut-off is given here.

What was measured:
[1] = biological target: T1, Toll-like receptor 8 (Homo sapiens) (UniProt Q9NR97); test: Agonist activity at human TLR8 expressed in HEK293XL cells assessed as NF-kappaB activation after 18 hrs; type: functional, cell-based
T1 sequence (whole entry): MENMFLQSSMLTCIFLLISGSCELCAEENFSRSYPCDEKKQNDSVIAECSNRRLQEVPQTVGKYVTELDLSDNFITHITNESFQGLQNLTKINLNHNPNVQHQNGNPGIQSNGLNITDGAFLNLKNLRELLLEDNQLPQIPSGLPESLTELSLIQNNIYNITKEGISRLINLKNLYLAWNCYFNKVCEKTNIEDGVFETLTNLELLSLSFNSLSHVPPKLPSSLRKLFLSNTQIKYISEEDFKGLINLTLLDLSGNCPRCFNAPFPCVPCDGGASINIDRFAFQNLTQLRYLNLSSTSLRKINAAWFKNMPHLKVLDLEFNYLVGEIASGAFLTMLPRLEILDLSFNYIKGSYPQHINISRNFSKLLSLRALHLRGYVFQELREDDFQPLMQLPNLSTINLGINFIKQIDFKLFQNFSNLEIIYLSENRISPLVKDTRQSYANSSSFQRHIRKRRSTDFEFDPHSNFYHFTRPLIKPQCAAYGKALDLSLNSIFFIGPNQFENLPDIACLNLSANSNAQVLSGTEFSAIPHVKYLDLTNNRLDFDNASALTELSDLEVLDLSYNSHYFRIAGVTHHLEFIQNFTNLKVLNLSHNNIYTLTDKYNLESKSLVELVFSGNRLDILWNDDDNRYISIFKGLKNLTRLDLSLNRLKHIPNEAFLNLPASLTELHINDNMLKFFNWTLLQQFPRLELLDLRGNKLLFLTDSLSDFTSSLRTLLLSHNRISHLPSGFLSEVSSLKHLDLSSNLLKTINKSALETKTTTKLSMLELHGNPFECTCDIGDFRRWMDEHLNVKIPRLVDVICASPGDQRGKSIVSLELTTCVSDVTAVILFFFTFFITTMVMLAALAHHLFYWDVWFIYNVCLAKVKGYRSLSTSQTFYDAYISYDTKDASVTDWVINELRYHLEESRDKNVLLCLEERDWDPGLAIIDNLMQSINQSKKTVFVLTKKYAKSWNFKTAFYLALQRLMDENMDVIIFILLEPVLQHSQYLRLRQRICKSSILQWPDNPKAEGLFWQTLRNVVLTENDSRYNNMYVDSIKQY

PBMC [2] = test: Stimulation of immune response in human PBMC assessed as induction of MIP1beta production at 150 ug/ml after 24 hrs; type: functional, cell-based
PBMC [3] = test: Stimulation of immune response in human PBMC assessed as induction of IFNalpha production at 150 ug/ml after 24 hrs; type: functional, cell-based
PBMC [4] = test: Stimulation of immune response in human PBMC assessed as induction of MIP1alpha production at 150 ug/ml after 24 hrs; type: functional, cell-based
PBMC [5] = test: Stimulation of immune response in human PBMC assessed as induction of IL1-beta production at 150 ug/ml after 24 hrs; type: functional, cell-based
PBMC [6] = test: Stimulation of immune response in human PBMC assessed as induction of IFN-gamma production at 150 ug/ml after 24 hrs; type: functional, cell-based
Mus musculus [7] = test: Stimulation of immune response in C57BL/6 mouse assessed as induction of serum IL10 production at 50 mg/kg, sc after 2 hrs by luminex multiplex assay; type: functional, organism-based; design: dose 50 mg/kg
Homo sapiens [8] = species: Homo sapiens; test: Stimulation of immune response in human pDC assessed as induction of TNFalpha production at 150 ug/ml after 24 hrs; type: functional
Homo sapiens [9] = species: Homo sapiens; test: Stimulation of immune response in human pDC assessed as induction of MIP1alpha production at 150 ug/ml after 24 hrs; type: functional
Homo sapiens [10] = species: Homo sapiens; test: Stimulation of immune response in human pDC assessed as induction of MIP1beta production at 150 ug/ml after 24 hrs; type: functional
Mus musculus [11] = test: Stimulation of immune response in C57BL/6 mouse assessed as induction of serum IL12 production at 50 mg/kg, sc after 2 hrs by luminex multiplex assay; type: functional, organism-based; design: dose 50 mg/kg
Homo sapiens [12] = species: Homo sapiens; test: Stimulation of immune response in human pDC assessed as induction of IL12 production at 150 ug/ml after 24 hrs; type: functional
[13] = biological target: T2, Toll-like receptor 7 (Homo sapiens) (UniProt Q9NYK1); test: Agonist activity at human TLR7 expressed in HEK293XL cells assessed as NF-kappaB activation after 18 hrs; type: functional, cell-based
T2 sequence (whole entry): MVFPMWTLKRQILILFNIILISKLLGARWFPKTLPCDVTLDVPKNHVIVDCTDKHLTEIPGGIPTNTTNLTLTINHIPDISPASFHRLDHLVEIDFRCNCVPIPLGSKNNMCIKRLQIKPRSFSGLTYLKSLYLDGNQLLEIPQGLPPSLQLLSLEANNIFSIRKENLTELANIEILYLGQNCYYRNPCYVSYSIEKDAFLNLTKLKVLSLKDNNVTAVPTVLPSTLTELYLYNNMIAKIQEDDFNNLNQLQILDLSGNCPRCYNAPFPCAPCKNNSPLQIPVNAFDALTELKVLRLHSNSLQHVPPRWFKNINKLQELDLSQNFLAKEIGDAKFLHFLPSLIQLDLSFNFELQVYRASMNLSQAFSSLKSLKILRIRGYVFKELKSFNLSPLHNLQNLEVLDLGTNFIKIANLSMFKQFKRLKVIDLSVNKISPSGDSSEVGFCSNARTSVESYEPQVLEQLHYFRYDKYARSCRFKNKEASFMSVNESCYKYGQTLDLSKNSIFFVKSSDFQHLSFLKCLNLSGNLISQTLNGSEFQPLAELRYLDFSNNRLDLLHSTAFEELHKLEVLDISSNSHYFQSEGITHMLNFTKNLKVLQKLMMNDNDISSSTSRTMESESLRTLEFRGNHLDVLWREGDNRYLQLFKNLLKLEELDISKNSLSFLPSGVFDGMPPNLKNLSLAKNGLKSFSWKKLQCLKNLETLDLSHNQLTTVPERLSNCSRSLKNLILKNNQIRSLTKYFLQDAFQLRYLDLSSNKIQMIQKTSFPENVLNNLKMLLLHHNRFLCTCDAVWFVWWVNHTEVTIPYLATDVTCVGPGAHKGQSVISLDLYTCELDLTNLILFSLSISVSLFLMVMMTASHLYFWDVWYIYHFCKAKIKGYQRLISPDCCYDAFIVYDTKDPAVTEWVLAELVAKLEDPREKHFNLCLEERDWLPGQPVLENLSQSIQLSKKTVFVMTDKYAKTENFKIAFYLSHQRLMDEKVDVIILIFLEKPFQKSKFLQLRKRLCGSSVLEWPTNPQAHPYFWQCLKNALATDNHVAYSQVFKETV

PBMC [14] = test: Stimulation of immune response in human PBMC assessed as induction of IL2R level at 150 ug/ml after 24 hrs; type: functional, cell-based
Homo sapiens [15] = species: Homo sapiens; test: Stimulation of immune response in human pDC assessed as induction of IFN-gamma production at 150 ug/ml after 24 hrs; type: functional
PBMC [16] = test: Stimulation of immune response in human PBMC assessed as induction of IL12 production at 150 ug/ml after 24 hrs; type: functional, cell-based
Homo sapiens [17] = species: Homo sapiens; test: Stimulation of immune response in human pDC assessed as induction of IFNalpha production at 150 ug/ml after 24 hrs; type: functional
[18] = (§1) Stability in human serum assessed as full-length compound remaining after 10 mins by anion-exchange HPLC; type: ADME, cell-free; conditions: read-out: Stability
PBMC [19] = test: Stimulation of immune response in human PBMC assessed as induction of IL10 production at 150 ug/ml after 24 hrs; type: functional, cell-based
PBMC [20] = test: Stimulation of immune response in human PBMC assessed as induction of IL8 production at 150 ug/ml after 24 hrs; type: functional, cell-based
PBMC [21] = test: Stimulation of immune response in human PBMC assessed as induction of TNFalpha production at 150 ug/ml after 24 hrs; type: functional, cell-based
PBMC [22] = test: Stimulation of immune response in human PBMC assessed as induction of MCP1 production at 150 ug/ml after 24 hrs; type: functional, cell-based
PBMC [23] = test: Stimulation of immune response in human PBMC assessed as induction of RANTES production at 150 ug/ml after 24 hrs; type: functional, cell-based
Mus musculus [24] = test: Stimulation of immune response in C57BL/6 mouse assessed as induction of serum chemokine KC production at 50 mg/kg, sc after 2 hrs by luminex multiplex assay; type: functional, organism-based; design: dose 50 mg/kg
Serum = test: as §1; type: ADME, cell-free; conditions: 10 min

Compound: Nc1ccn([C@@H]2O[C@H](COP(=O)(S)O[C@H]3[C@@H](O)[C@H](n4ccc(=O)[nH]c4=O)O[C@@H]3COP(=O)(S)O[C@H]3[C@H](O)[C@H](n4cnc5c(=O)[nH]c(N)nc54)O[C@@H]3COP(=O)(S)O[C@H]3[C@H](O)[C@H](n4ccc(N)nc4=O)O[C@@H]3COP(=O)(S)O[C@H]3[C@@H](O)[C@H](n4ccc(=O)[nH]c4=O)O[C@@H]3COP(=O)(S)O[C@H]3[C@@H](O)[C@H](n4ccc(=O)[nH]c4=O)O[C@@H]3COP(=O)(S)O[C@H]3[C@@H](O)[C@H](n4cnc5c(=O)[nH]c(N)nc54)O[C@@H]3COP(=O)(S)O[C@H]3[C@@H](O)[C@H](n4ccc(=O)[nH]c4=O)O[C@@H]3COP(=O)(S)O[C@H]3[C@@H](O)[C@H](n4cnc5c(=O)[nH]c(N)nc54)O[C@@H]3COP(=O)(S)OCC(O)COP(=O)(S)O[C@H]3[C@@H](O)[C@H](n4cnc5c(=O)[nH]c(N)nc54)O[C@@H]3COP(=O)(S)O[C@H]3[C@@H](O)[C@H](n4ccc(=O)[nH]c4=O)O[C@@H]3COP(=O)(S)O[C@H]3[C@@H](O)[C@H](n4cnc5c(=O)[nH]c(N)nc54)O[C@@H]3COP(=O)(S)O[C@H]3[C@@H](O)[C@H](n4ccc(=O)[nH]c4=O)O[C@@H]3COP(=O)(S)O[C@H]3[C@@H](O)[C@H](n4ccc(=O)[nH]c4=O)O[C@@H]3COP(=O)(S)O[C@H]3[C@H](O)[C@H](n4ccc(N)nc4=O)O[C@@H]3COP(=O)(S)O[C@H]3[C@@H](O)[C@H](n4cnc5c(=O)[nH]c(N)nc54)O[C@@H]3COP(=O)(S)O[C@H]3[C@@H](O)[C@H](n4ccc(=O)[nH]c4=O)O[C@@H]3COP(=O)(S)O[C@H]3[C@H](O)[C@H](n4ccc(N)nc4=O)O[C@@H]3COP(=O)(S)O[C@H]3[C@@H](O)[C@H](n4cnc5c(=O)[nH]c(N)nc54)O[C@@H]3COP(=O)(S)O[C@H]3[C@@H](O)[C@H](n4ccc(=O)[nH]c4=O)O[C@@H]3CO)[C@@H](OP(=O)(S)OC[C@H]3O[C@@H](n4cnc5c(=O)[nH]c(N)nc54)[C@H](O)[C@@H]3OP(=O)(S)OC[C@H]3O[C@@H](n4ccc(=O)[nH]c4=O)[C@H](O)[C@@H]3OP(=O)(O)S)[C@@H]2O)c(=O)n1 (stereo not given in full)
- Activity [1]: Dose-dependent effect
- Activity (PBMC [2]): Active
- Activity (PBMC [3]): Active
- Activity (PBMC [4]): Active
- Activity (PBMC [5]): Active
- Activity (PBMC [6]): Active
- Activity (Mus musculus [7]): Active
- Activity (Homo sapiens [8]): Active
- Activity (Homo sapiens [9]): Active
- Activity (Homo sapiens [10]): Active
- Activity (Mus musculus [11]): Active
- Activity (Homo sapiens [12]): Active
- Activity [13]: Dose-dependent effect
- Activity (PBMC [14]): Active
- Activity (Homo sapiens [15]): Active
- Activity (PBMC [16]): Active
- Activity (Homo sapiens [17]): Active
- remaining at 10 min [18]: 76%
- Activity (PBMC [19]): Active
- Activity (PBMC [20]): Active
- Activity (PBMC [21]): Active
- Activity (PBMC [22]): Active
- Activity (PBMC [23]): Active
- Activity (Mus musculus [24]): Active

Compound: Nc1ccn([C@@H]2O[C@H](COP(=O)(S)O[C@H]3[C@@H](O)[C@H](n4cnc5c(N)ncnc54)O[C@@H]3COP(=O)(S)O[C@H]3[C@@H](O)[C@H](n4cnc5c(=O)[nH]c(N)nc54)O[C@@H]3COP(=O)(S)O[C@H]3[C@@H](O)[C@H](n4ccc(=O)[nH]c4=O)O[C@@H]3COP(=O)(S)O[C@H]3[C@@H](O)[C@H](n4cnc5c(=O)[nH]c(N)nc54)O[C@@H]3COP(=O)(S)O[C@H]3[C@@H](O)[C@H](n4ccc(=O)[nH]c4=O)O[C@@H]3COP(=O)(S)O[C@H]3[C@@H](O)[C@H](n4cnc5c(=O)[nH]c(N)nc54)O[C@@H]3COP(=O)(S)O[C@H]3[C@@H](O)[C@H](n4ccc(=O)[nH]c4=O)O[C@@H]3COP(=O)(S)O[C@H]3[C@@H](O)[C@H](n4ccc(=O)[nH]c4=O)O[C@@H]3COP(=O)(S)O[C@H]3[C@@H](O)[C@H](n4cnc5c(=O)[nH]c(N)nc54)O[C@@H]3COP(=O)(S)O[C@H]3[C@@H](O)[C@H](n4ccc(=O)[nH]c4=O)O[C@H]3CO)[C@@H](OP(=O)(S)OCC(O)COP(=O)(S)O[C@H]3[C@@H](O)[C@H](n4ccc(N)nc4=O)O[C@@H]3COP(=O)(S)O[C@H]3[C@@H](O)[C@H](n4cnc5c(N)ncnc54)O[C@@H]3COP(=O)(S)O[C@H]3[C@@H](O)[C@H](n4cnc5c(=O)[nH]c(N)nc54)O[C@@H]3COP(=O)(S)O[C@H]3[C@@H](O)[C@H](n4ccc(=O)[nH]c4=O)O[C@@H]3COP(=O)(S)O[C@H]3[C@@H](O)[C@H](n4cnc5c(=O)[nH]c(N)nc54)O[C@@H]3COP(=O)(S)O[C@H]3[C@@H](O)[C@H](n4ccc(=O)[nH]c4=O)O[C@@H]3COP(=O)(S)O[C@H]3[C@@H](O)[C@H](n4cnc5c(=O)[nH]c(N)nc54)O[C@@H]3COP(=O)(S)O[C@H]3[C@@H](O)[C@H](n4ccc(=O)[nH]c4=O)O[C@@H]3COP(=O)(S)O[C@H]3[C@@H](O)[C@H](n4ccc(=O)[nH]c4=O)O[C@@H]3COP(=O)(S)O[C@H]3[C@@H](O)[C@H](n4cnc5c(=O)[nH]c(N)nc54)O[C@@H]3COP(=O)(S)O[C@H]3[C@@H](O)[C@H](n4ccc(=O)[nH]c4=O)O[C@@H]3CO)[C@H]2O)c(=O)n1 (stereo in doubt; 5)
- Stability (Serum): 75%
